Columns and labels:
hTRα1 = hTRα1 (Homo sapiens (Human), UniProt P10827); assay: TRE-driven dual luciferase transactivation assay, TRα; assay type: cell-based; conditions: transiently transfected HEK293 cells; ±SEM
Protocol: The cells were trypsinized with 0.25% trypsin, then diluted to 5×10^5 cells/mL with high glucose DMEM. […] 1.5 μg of TR expression vector (full length TRα-CMV or TRβ-CMV), 1.5 μg of a reporter plasmid containing a DR4 thyroid hormone response element (TRE) direct repeat spaced by four nucleotides (AGGTCAcaggAGGTCA) cloned upstream of a minimal thymidine kinase promoter linked to a firefly luciferase coding sequence, and 0.75 μg of a pRL-SV40 constitutive Renilla luciferase reporter plasmid were diluted into 540 μl of OptiMEM. 27 μL of lipofectamine reagent was diluted into 540 μL of OptiMEM. The plasmid and lipofectamine dilutions were combined then incubated at RT for 10 min. The mixture was then diluted into 4.29 mL of OptiMEM. Plates were washed with 100 μL of phosphate buffered saline (PBS) at pH 7.2 without magnesium or calcium chloride per well. Transfection mixtures were added at 50 μL per well, then incubated at 37° C. for 4 hours. […]
(§1) Cells were assayed for luciferase activity using the Promega DualGlo kit. […] A 50 μl volume of Stop & Glo Reagent was added per well, then the plate was read for Renilla luciferase activity. Data normalized to Renilla internal control were analyzed with GraphPad Prism v.4a using the sigmoid dose response model to generate EC50 values±SEM.

hTRβ1 [1] = target: hTRβ1 (Homo sapiens (Human), UniProt P10828); assay: TRE-driven dual luciferase transactivation assay, TRβ; assay type: cell-based; conditions: transiently transfected HEK293 cells; ±SEM
Sequence of hTRβ1 (Homo sapiens (Human), UniProt P10828) (P10828 whole entry, looked up): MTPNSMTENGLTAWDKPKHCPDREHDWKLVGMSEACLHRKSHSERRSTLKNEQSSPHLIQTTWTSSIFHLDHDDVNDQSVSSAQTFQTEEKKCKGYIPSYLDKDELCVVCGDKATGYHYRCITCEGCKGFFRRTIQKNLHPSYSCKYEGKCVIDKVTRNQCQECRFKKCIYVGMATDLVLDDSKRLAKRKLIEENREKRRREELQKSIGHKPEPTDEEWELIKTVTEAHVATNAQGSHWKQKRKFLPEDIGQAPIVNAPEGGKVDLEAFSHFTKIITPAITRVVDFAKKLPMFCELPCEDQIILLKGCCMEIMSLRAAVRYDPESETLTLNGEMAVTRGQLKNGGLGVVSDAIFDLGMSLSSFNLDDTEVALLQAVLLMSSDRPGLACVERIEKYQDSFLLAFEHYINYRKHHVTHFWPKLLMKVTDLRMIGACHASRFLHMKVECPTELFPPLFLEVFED
Protocol: (§2) The cells were trypsinized with 0.25% trypsin, then diluted to 5×10^5 cells/mL with high glucose DMEM. […] 1.5 μg of TR expression vector (full length TRα-CMV or TRβ-CMV), 1.5 μg of a reporter plasmid containing a DR4 thyroid hormone response element (TRE) direct repeat spaced by four nucleotides (AGGTCAcaggAGGTCA) cloned upstream of a minimal thymidine kinase promoter linked to a firefly luciferase coding sequence, and 0.75 μg of a pRL-SV40 constitutive Renilla luciferase reporter plasmid were diluted into 540 μl of OptiMEM. 27 μL of lipofectamine reagent was diluted into 540 μL of OptiMEM. The plasmid and lipofectamine dilutions were combined then incubated at RT for 10 min. The mixture was then diluted into 4.29 mL of OptiMEM. Plates were washed with 100 μL of phosphate buffered saline (PBS) at pH 7.2 without magnesium or calcium chloride per well. Transfection mixtures were added at 50 μL per well, then incubated at 37° C. for 4 hours. Modified DME/F-12 Ham's medium without phenol red containing 15 mM HEPES and bicarbonate, 5 mM L-glutamine, charcoal-stripped FBS, 50 units/mL penicillin and 50 μg/mL streptomycin was added at 50 μL per well, then the plates were incubated at 37° C. for 20 hours. Drug stocks were made at 10 mM in DMSO, then serially diluted to 1× concentrations in DME/F-12 Ham's. Plates were washed with 100 μL of PBS (pH 7.2) per well. 100 μL of each drug stock was added to the wells in triplicate, and then the plates were incubated at 37° C. for 24 hours.
as §1

hTRβ1 [2] = assay: as above; assay type: cell-based, human; conditions: transactivation assays in HEK293 cells
Protocol: as §2, §1

[3] = Distribution study in brain and serum after systemic (ip) administration, LC-MS/MS; assay type: in vivo, C57BL/6J mice; conditions: 9.14 μmol/kg ip, 1 hr post-injection
Protocol: Euthanasia was performed on three mice per dose at 1 hr and the tissues and blood were harvested. Tissues were immediately frozen and blood was kept on ice for a minimum of 30 minutes and then spun down at 7,500×G for 15 minutes. Serum (100 uL) was collected and was stored with tissues at −80° C. until samples were processed.
The serum samples were warmed to RT and 10 uL of 2.99 μM internal standard (D6-GC-1) was added to them. Acetonitrile (500 uL) was added and the sample was vortexed for 20 seconds. The sample was then centrifuged at 10,000×G for 15 minutes at 4° C. Next, 90% of the upper supernatant was transferred to a glass test tube and concentrated using a speedvac for 1.5 hr at 45° C. The dried sample was then dissolved in 400 μL of 50:50 ACN:H2O and vortexed for 20 seconds. The resulting mixture was transferred to an Eppendorf tube and centrifuged at 10,000×G for 15 minutes. The supernatant was filtered with […] centrifugal filters and submitted for LCMS/MS analysis. […] The processing was performed exactly the same except after filtering the sample was split among 6 vials.
The brain samples were warmed to RT and transferred to a homogenizer tube with 5 GoldSpec ⅛ chrome steel balls (Applied Industrial Technologies). The resulting tube was weighed and then 1 mL of H2O was added, followed by 10 μL of 2.99 μM internal standard (D6-Sobetirome). The tube was homogenized with a Bead Bug for 30 seconds and then transferred to a Falcon® tube containing 3 mL of ACN. A 1 ml volume of ACN was used to wash the homogenizer tube. Then the solution was transferred back to the Falcon® tube. The sample was then processed using the same method for the serum processing described above except the sample was concentrated in a glass tube using a speed vac for 4 hr at 45° C.
A distribution study was carried out in C57BL/6J mice to determine the concentrations in brain and serum after systemic (ip) administration. […] Tissue and blood were collected 1 hr post-injection and the concentration of the drugs was determined by LC-MS/MS analysis (FIG. 2).

Hairless (Hr) mRNA = assay: Induction of Hairless (Hr) mRNA expression in the brain by qPCR after ip administration; assay type: in vivo, C57BL/6J mice; conditions: for Hr induction compared to GC-1: analogs at 0.914 μmol/kg ip; for potency greater than GC-1 (Hr induction, single dose): from single dose comparison; for EC50 of Hr mRNA induction in the brain: ip, ±SEM
Protocol: Euthanasia was performed on three mice per dose at 2 hr and the tissues were harvested. The brain tissues collected for qPCR analysis were processed according to a protocol for RNA extraction using Trizol reagent and the PureLink RNA mini kit, using Qiagen RNase-free DNase kit during the optional DNase treatment step. 1 μg of extracted RNA was used to synthesize cDNA via a reverse transcription (RT) reaction using the Qiagen QuantiTect Reverse Transcription kit. DNA contamination was controlled for by duplicating one sample without the addition of RT enzyme. Expression of the Hairless (Hr) gene was measured by QPCR using the QuantiTect SYBR green PCR kit from Qiagen. The primer sequences for hairless ([…]; Rev: [NT] were previously described by Barca-Mayo19. The template cDNA was diluted 2-fold to minimize the interference of RT reagents in the qPCR reaction. Glyceraldehyde-3-Phosphate Dehydrogenase (GAPDH) was the housekeeping gene used for normalizing between samples. Data analysis for single dose experiment was done using the comparative CT method to look at the relative differences in Hr gene expression.

[4] = Single time-point drug distribution of parent drugs from amides in brain and serum; assay type: in vivo, C57Bl/6 mice; conditions: equimolar systemic dose of 3.05 μmol/kg, 1 hour, brain
Protocol: Wild type male C57Bl/6 mice, aged 8-10 weeks, were housed in a climate-controlled room with a 12 hour light-dark cycle with ad libitum access to food and water. To compare the single time-point drug distribution of JD-20 with JD-20 generated from the amide MA-JD20, and JD-21 with JD-21 generated from the amide MA-JD-21, the concentrations of the parent drugs were analyzed in brain and serum of mice by administering a dose of 3.05 μmol/kg (three mice per dose) with JD-20, JD-21, MA-JD20 and MA-JD21 both intraperitoneally and orally. The compounds were dissolved in a mixture of 50:50 DMSO and 0.9% sodium chloride bacteriostatic solution. Oral gavage was performed with the use of plastic feeding tubes (20 ga×38 mm, Instech Laboratories Inc., PA, USA) connected to […] insulin syringes (Covidien LLC MA, USA). In both experiments, the mice were euthanized after 1 hour following drug administration.
The tissues were processed as follows: The brains were collected in previously weighed homogenizer tubes with 3 Gold Spec ⅛ chrome steel balls (Applied Industrial Technologies) and immediately frozen at −80° C. The blood samples were kept on ice for 30 mins and then spun down at 5400×G at 4° C. for 15 min. […]
The serum samples were warmed to room temperature. […] The serum samples thus prepared were submitted for LC-MS/MS analysis to quantify the amount of free JD-20 or JD-21. […]

[5] = 24 h time-course study after oral dose of MA-JD20; assay type: in vivo, mice; conditions: oral MA-JD20, JD-20 measured
Protocol: As a follow-up of the single time point study, a 24 h time course study through oral gavage was performed for the amides, MA-JD20 and MA-JD21, and the corresponding JD-20 or JD-21 concentrations were measured in brain and blood of mice. Pharmacokinetic time-course curves were generated from these analyses and area under the curve (AUC) values for brain and blood were obtained.
Following the single time point drug distribution evaluation, to further understand the pharmacokinetic properties of the amide, a 24 h time-course study was conducted by administering an oral dose of […] of MA-JD20 to mice. The JD-20 concentrations generated in brain and blood were analyzed and area under the curve (AUC) values for brain and serum were obtained (FIG. 7). The AUCbrain/AUCserum ratio for amide MA-JD-20 is observed to be 0.89. […] The results obtained from the single point drug distribution were confirmed by the AUC analyses.

Human FAAH = Human FAAH (Homo sapiens (Human), UniProt O00519); assay: FAAH activity in cell homogenate; assay type: biochemical; conditions: for FAAH substrate: 100 μM, COS-7 cell homogenate; for decreased observed rate of substrate cleavage compared to AEA: substrate 100 μM, FAAH overexpressed in COS-7 cell homogenate
Sequence of Human FAAH (O00519 whole entry): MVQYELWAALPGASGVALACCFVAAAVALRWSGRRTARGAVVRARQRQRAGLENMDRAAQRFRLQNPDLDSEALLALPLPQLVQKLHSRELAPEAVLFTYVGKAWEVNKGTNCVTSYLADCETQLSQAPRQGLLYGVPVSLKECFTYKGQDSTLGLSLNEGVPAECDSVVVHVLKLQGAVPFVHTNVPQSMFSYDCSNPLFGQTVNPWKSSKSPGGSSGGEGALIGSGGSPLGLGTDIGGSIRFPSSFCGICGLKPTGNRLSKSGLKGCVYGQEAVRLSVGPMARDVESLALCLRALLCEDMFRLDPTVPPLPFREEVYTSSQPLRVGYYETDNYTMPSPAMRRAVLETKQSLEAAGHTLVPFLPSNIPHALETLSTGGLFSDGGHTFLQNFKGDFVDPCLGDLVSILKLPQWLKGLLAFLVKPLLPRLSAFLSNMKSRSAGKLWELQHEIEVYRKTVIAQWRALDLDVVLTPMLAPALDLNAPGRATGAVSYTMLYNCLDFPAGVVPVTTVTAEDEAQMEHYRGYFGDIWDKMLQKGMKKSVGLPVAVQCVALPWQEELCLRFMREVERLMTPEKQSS
Protocol: COS-7 cells (ATCC CRL-1651) were cultured in Dulbecco's Modified Eagle's Medium supplemented with 10% FBS, penicillin ([…]), and streptomycin ([…]). Cells (800,000/well) were seeded into 6-well plates (Falcon 353046) and left to adhere overnight. Cells were transfected with pcDNA4-FAAH-FLAG with Lipofectamine 2000 (Invitrogen) according to the manufacturer's protocol. Mock transfection controls were done with transfection reagent and no DNA. Cells were washed 4-days post transfection with cold PBS and scraped into TE buffer (125 mM Tris, 1 mM EDTA, pH 9) and sonicated (10 sec, 60 Sonic Dismembrator, Fisher). Cell homogenates were stored at −80° C. and protein concentrations were determined by BCA (Pierce). Cell homogenates were diluted into TE buffer containing 0.1% fatty-acid free BSA (Alfa Aesar). Substrates were added as 50× stocks in DMSO into 50 μL aliquots of homogenate to a final concentration of 100 μM. Reactions were performed with homogenate protein at 31.25 μg/mL for 15 min at 37° C. Reactions were quenched with 100 μL acetonitrile and vortexed for 20 s. Samples were clarified by centrifuge (10,000 rpm, 15 min, 4° C.). The supernatant is diluted 50-fold into 2:1 MeCN:H2O containing 300 nM d11-arachindonic acid and 30 nM d6-sobetirome. Samples were centrifuged again (13,200 rpm, 15 min, 4° C.). Products were quantified by LC/MS-MS with standard curves generated from mock samples. Observed rates are expressed as nmol product per mg protein homogenate per min.
FAAH was overexpressed in COS-7 cells as described above and cell homogenate was used to measure observed rates of substrate cleavage compared with the classic endogenous FAAH substrate anandamide (AEA). Substrate were all tested at 100 μM. Compared to AEA, the thyromimetic amides MA-GC 1 (9-fold), MA-JD20 (31-fold), and MA-JD21 (20-fold) show decreased rates. […] Observed rates are expressed as nmol product per mg homogenate protein per min.

Sequence of hTRα1 (P10827 other isoform, or with tags, fused parts or gaps): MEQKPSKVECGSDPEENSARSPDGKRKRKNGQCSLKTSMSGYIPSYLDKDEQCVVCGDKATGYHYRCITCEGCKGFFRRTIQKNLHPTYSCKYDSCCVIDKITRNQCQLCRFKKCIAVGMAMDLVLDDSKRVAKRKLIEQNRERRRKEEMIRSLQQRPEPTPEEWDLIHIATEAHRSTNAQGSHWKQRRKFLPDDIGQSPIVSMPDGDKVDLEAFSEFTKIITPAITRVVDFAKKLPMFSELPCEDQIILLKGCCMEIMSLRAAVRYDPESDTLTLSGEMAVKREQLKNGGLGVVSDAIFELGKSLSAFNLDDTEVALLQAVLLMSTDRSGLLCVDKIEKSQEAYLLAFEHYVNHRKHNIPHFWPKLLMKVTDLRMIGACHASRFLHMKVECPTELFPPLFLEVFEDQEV

Compound | EC50 (hTRα1) [nM] | EC50 (hTRβ1 [1]) [nM] | TRβ/TRα subtype selectivity from EC50 values (hTRβ1 [2]) | brain:serum ratio compared to GC-1 [3] | brain uptake compared to GC-1 [3] | serum levels compared to GC-1 [3] | Hr induction compared to GC-1 (Hairless (Hr) mRNA; 2 hr, brain) | potency greater than GC-1 (Hr induction, single dose) (Hairless (Hr) mRNA; brain) | EC50 of Hr mRNA induction in the brain (Hairless (Hr) mRNA; 2 hr, normalized to GAPDH mRNA) [µmol/kg] | induction of Hr expression (Hairless (Hr) mRNA; 9.14 μmol/kg ip, 2 hr, brain, normalized to GAPDH mRNA) [fold] | parent drug delivered to the CNS compared to unmodified JD-20 or JD-21 [4] | Cmax and Tmax time in the brain tissue [5] | FAAH substrate (Human FAAH) | decreased observed rate of substrate cleavage compared to AEA (Human FAAH) [fold]
CC(C)c1cc(Cc2c(Br)cc(OCC(=O)O)cc2Br)ccc1O [JD-20, 2-(3,5-dibromo-4-((3-isopropyl-4-hydroxyphenyl)methyl)-phenoxy)acetic acid] | 7.96 ± 6.95 | 0.88 ± 1.12 | 9.04 | comparable to GC-1 | somewhat lower | significantly lower than GC-1 | comparable Hr induction to GC-1 | roughly 10 fold | 1.49 ± 1.08 | – | – | – | – | –
CC(C)c1cc(Cc2c(Cl)cc(OCC(=O)O)cc2Cl)ccc1O [JD-21, 2-(3,5-dichloro-4-((3-isopropyl-4-hydroxyphenyl)methyl)-phenoxy)acetic acid] | 7.82 ± 3.61 | 1.24 ± 1.3 | 6.31 | higher brain:serum ratio than GC-1 | roughly comparable brain uptake compared to GC-1 | significantly lower than GC-1 | comparable Hr induction to GC-1 | roughly 10 fold | 1.21 ± 1.75 | 2.4 | – | – | – | –
CNC(=O)COc1cc(Br)c(Cc2ccc(O)c(C(C)C)c2)c(Br)c1 [MA-JD20, 2-(3,5-dibromo-4-(4-hydroxy-3-isopropylbenzyl)phenoxy)-N-methylacetamide] | – | – | – | – | – | – | – | – | – | – | delivers more of the parent drugs to the CNS | around 2 h | substrates for fatty-acid amide hydrolase (FAAH) | 31
CNC(=O)COc1cc(Cl)c(Cc2ccc(O)c(C(C)C)c2)c(Cl)c1 [MA-JD21, 2-(3,5-dichloro-4-(4-hydroxy-3-isopropylbenzl)phenoxy)-N-methylacetamide] | – | – | – | – | – | – | – | – | – | – | delivers more of the parent drugs to the CNS | – | substrates for fatty-acid amide hydrolase (FAAH) | 20

Source: US10544075B2 (OREGON HEALTH & SCIENCE UNIVERSITY, priority 2016, dated 2020)
